Source: patent publication US10933079B2, “Oligonucleotide analogues incorporating 5-aza-cytosine therein” (Astex Pharmaceuticals, Inc., priority 2005, dated 2021)

How the values were obtained:
[1] = tested on: CMV-EE210 cell line containing the epigenetically silenced GFP transgene (CMV promoter); test: cell-based GFP assay for DNA methylation (reactivation of silenced GFP transgene)
Procedure: The demethylating activity of DpG and GpD di-, tri-, and tetranucleotides were tested in a cell-based GFP (green fluorescent protein) assay. This assay, which is schematically illustrated in FIG. 25, has a GFP gene regulated by the CMV promoter and is sensitive to the methylation of CpG sites within the promoter. A decrease in methylation resulting from exposure to a methylation inhibitor leads to GFP expression and is readily scored. Specifically, the CMV-EE210 cell line containing the epigenetically silenced GFP transgene was used to assay for reactivation of GFP expression by flow cytometry. CMV-EE210 was made by transfecting NIH 3T3 cells with the pTR-UF/UF1/UF2 plasmid (Zolotuhin et al., 1996), which is comprised of pBS(+) (Stratagene, Inc.) containing a cytomegalovirus (CMV) promoter driving a humanized GFP gene adapted for expression in mammalian cells. After transfection, high-level GFP expressing cells were initially selected by FACS analysis and sorting using a MoFlo cytometer (Cytomation, Inc.). Decitabine, potent inhibitor of mammalian DNMT1, was used as a positive control. […] Wells were scored g1 positive if (10%) of viable cells express GFP, g2 positive if 30% of viable cells express GFP and g3 if >75% of the viable cells express GFP. […]

[2] = cited from earlier work

Structure (SMILES): Nc1ncn([C@H]2C[C@H](O)[C@@H](CO)O2)c(=O)n1 [Decitabine, 5-aza-2′-deoxycytidine]
- GFP Expression Level ([1]; CMV-EE210 cells, three days, decitabine at 1 μM, test compound at 30-50 μM, fluorescent microscope scoring): g3 (g3 if >75% of the viable cells express GFP)
- IC50 ([1]; GFP 50: dose at which the GFP expression level goes from g3 to g1/2, preliminary screening): 500 nM
- total urinary excretion ([2]; humans): less than 1 % of the administered dose
- penetration into the cerebrospinal fluid ([2]; man, end of a 36-hour intravenous infusion): 14-21 % of the plasma concentration
